From patent publication US20250213700A1, “COMPOUNDS, COMPOSITIONS, AND METHODS FOR CELL-SPECIFIC PHARMACOLOGY” (Duke University, priority 2022, published 2025)

Tested on: AMPAR
Assay: acute striatal brain slice electrophysiology, AMPAR antagonism
Type: cell-based, mouse
Procedure: Electrophysiology. Preparation of Brain slices: Mice (8-10 weeks) were injected AAV10 HaloTag™-dTomato to striatum or ventral tegmental area (VTA). After 3-5 weeks, mice were deeply anesthetized with isoflurane and euthanized by decapitation. Coronal brain slices ([…]) containing striatum or VTA were prepared by standard methods using a Vibratome (Leica, VT 1200S), in ice-cold high sucrose cutting solution containing (in mM) 220 sucrose, 3 KCl, 1.25 NaH2PO4, 25 NaHCO3, 12 MgSO4.7H2O, 10 glucose, and 0.2 CaCl2) bubbled with 95% O2 and 5% CO2. […]
Whole-cell patch-clamp recording: The brain slices or retinas were perfused with bubbled aCSF at 29-30° C. with a 2 ml/min flow rate. […] Series resistance was monitored using 5-10 mV hyperpolarizing step throughout the experiment, and cells were discarded if series resistance changed more than ˜15% during the experiment. […] Statistical significance was determined using Student's t or one-way or two-way ANOVA tests. eIPSCs or eEPSCs decay time constants were obtained by fitting a single-exponential function, I(t)=I exp(−t/T)+ISS, where I(t) is the amplitude of the current at time t and ISS is the steady-state current, I is instantaneous current subtracted from Iss, and t is the time constant of decay. […]

Structure (SMILES): COc1cc(CCCCl)ccc1CCOCCNC(=O)c1ccc(CNC(=O)CCOCCOCCOCCOCCOCCOCCOCCOCCOCCOCCOCCOCCOCCOCCOCCOCCOCCOCCOCCOCCOCCOCCOCCOCCOCCOCCOCCOCCOCCOCCOCCOCCOCCOCCOCCOCCn2cc(COCCOCCOCCOCCOCCOCCNC(=O)CCCn3c(=O)c(=O)[nH]c4cc([N+](=O)[O-])c(-n5ccnc5)cc43)nn2)cc1 [YM90K.1DART.2]
- acceleration in comparison to predecessor: ~10 fold
- time to half-block of AMPAR (+HTP neurons, 0.3 µM dose): 5 min
